Earlier results as cited in patent US20150080252A1 (Fox Chase Cancer Center, priority 2009, published 2015).
Counter-ions that a name gives are not always drawn.

Test system: metastatic and/or unresectable GIST

Cc1ccc(NC(=O)c2ccc(CN3CCN(C)CC3)cc2)cc1Nc1nccc(-c2cccnc2)n1 [IM, imatinib mesylate]
patients with objective responses or stable disease (metastatic and/or unresectable GIST): > 80%
median time to partial response (PR) (≧30% reduction) (seminal phase II metastatic GIST study): 16 weeks
